From PMC12495443, “Developing inhibitors of the guanosine triphosphate hydrolysis accelerating activity of Regulator of G protein Signaling-14 [drawing 1]” (The Journal of Biological Chemistry, 2025)

Tests used:
[1] = biological target: T1, RGS14 RGS-box (GAP activity on wild-type Gαi1) (Homo sapiens, UniProt O43566); experiment: Single-turnover [γ-33P]GTP hydrolysis assay of RGS-box GAP activity; assay type: biochemical; conditions: wild-type Gαi1, concentration-dependent
T1 sequence (O43566 67-184 limits assumed): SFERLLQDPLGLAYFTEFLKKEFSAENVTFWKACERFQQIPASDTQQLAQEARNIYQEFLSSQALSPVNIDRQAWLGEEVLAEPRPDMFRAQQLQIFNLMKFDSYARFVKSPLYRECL
From the text: To further evaluate the functional activity of these triazolothiadiazine derivatives, and especially to eliminate concerns of misascribing GAP-inhibitory activity to potential assay interference, we tested two representative compounds—Z55660043 and Z55627844—in the gold-standard single-turnover radioactive GTP hydrolysis assay ([7], [58]) (Fig. 6).
The single-turnover radiolabeled-GTP hydrolysis assay is the gold standard assay for RGS-box GAP activity, first described using [γ -^32P]GTP by Berman et al. ([7]) and recently modified for modern performance ([91], [92], [93], [94]) to use readily available [γ-^33P]GTP substrate and perchloric acid quenching. The assay was performed by first pre-loading wild-type (WT) Gα protein (i.e., 750 nM purified, recombinant, wild-type-sequence human Gαi1 protein) with a slight excess (1 μM) of [γ-^33P]GTP for 15 min at 30 °C. Assay initiation involved adding purified recombinant RGS protein previously pre-incubated for 30 min at 30 °C with a candidate inhibitor. […] Supernatant aliquots were then added to liquid scintillation fluid and [^33P]-Pi content (i.e., hydrolyzed GTP) was quantified with a scintillation counter with an appropriate β-transmission window.

[2] = biological target: T2, human RGS14 RGS-box (wild-type) (Homo sapiens, UniProt O43566); experiment: Transcreener GDP RGScreen fluorescence polarization assay of RGS14 RGS-box GAP activity on Gαi1(DM); assay type: biochemical
T2 construct: human RGS14 RGS-box (aa 46–195 of UniProt O43566); host or cells: E. coli
T2 sequence (O43566 46-195): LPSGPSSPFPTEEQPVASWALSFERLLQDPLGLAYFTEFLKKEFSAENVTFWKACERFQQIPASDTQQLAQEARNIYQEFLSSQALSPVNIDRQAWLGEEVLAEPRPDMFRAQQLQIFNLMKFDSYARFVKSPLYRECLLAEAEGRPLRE
In short: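 Steady-state GTP hydrolysis by rate-altered double point-mutant Gαi1 was read by Transcreener GDP fluorescence polarization, with GTP conversion kept below 10% of maximum input. The E. coli-expressed, N-terminal His6-tagged wild-type RGS-boxes were RGS12 aa 695–843 and RGS14 aa 46–195.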

- Ratio (RGS14 pIC50 / RGS12 pIC50) ([2]; values > 1.0 reflect RGS14 selectivity): 0.95
- IC50 ([2]; wild-type RGS14 RGS-box GAP activity, Gαi1(DM), Transcreener GDP RGScreen, read-out: RGS14 pIC50 (converted)): 2290 nM
SMILES: COc1ccc(OCc2nnc3n2N=C(c2ccc(OC)c(OC)c2)CS3)cc1 [Z55660043, 6-(3,4-dimethoxyphenyl)-3-[(4-methoxy-phenoxy)methyl]-5H-[1,2,4]triazolo[3,4-b][1,3,4]thiadiazine]
- inhibition of RGS14 RGS-box-mediated acceleration of [γ-33P]GTP hydrolysis [1]: inhibit RGS14 RGS-box-mediated acceleration
